Measured values published in patent US8791079B2, “Methods for treating heart failure by inhibiting the mitochondrial sodium-calcium exchanger (mNCE)” (priority 2009, dated 2014).
Values joined by “and” are separate entries in the source; they are usually repeats but may differ in a detail not shown here. Equal entries are not always repeated. Marks after values point to notes of the source that are not given here.

Assays:
[1] = test system: Guinea pig ventricular myocytes; experiment: Action potentials and delayed afterdepolarizations in current-clamped myocytes; format: cell-based; conditions: for incidence of DAD-triggered APs: 100-nM isoproterenol, 1-μM ouabain without or with 1-μM CGP-37157, 1 Hz, last minute of stimulation
Procedure: Guinea pig ventricular myocytes were isolated by enzymatic digestion as described previously. O'Rourke, B., et al., “Oscillations of membrane current and excitability driven by metabolic oscillations in heart cells,” Science, 265(5174):962-966 (Aug. 12, 1994). Cells were suspended in Dulbecco's Modification of Eagle's Medium (DMEM) supplemented with 5% fetal bovine serum, 1% penicillin/streptomycin, and 15 mmol/L HEPES, pH 7.4, and stored in a 5% CO2 incubator at 37° C.
Isolated ventricular myocytes were loaded into a heated field-stimulation chamber (Warner Instruments, Hamden, Conn.) at 37° C. on the stage of a fluorescence microscope (Nikon Eclipse TE300, Nikon Instruments, Inc., Melville, N.Y.). The myocytes were first superfused with control Tyrode's solution containing: NaCl (130 mmol/L), KCl (5 mmol/L), MgCl2 (1 mmol/L), Na-HEPES (10 mmol/L), CaCl2 (2 mmol/L), glucose (10 mmol/L), at pH 7.4. After one minute of recording in the absence of electrical stimulation in control buffer, 1-μM ouabain and 100-nM isoproterenol, with or without 1 μM CGP-37157, were added to buffer. After another five minutes of recording, myocytes were field-stimulated at 1 Hz for three minutes followed by a two-minute recording after returning to the resting state. To record [Ca^2+]m and action potentials, myocytes were whole-cell patch-clamped at 37° C. Tyrode's solution was used as external solution and the internal solution contained: NaCl (10 mmol/L), KCl (19 mmol/L), K-glutamate (125 mmol/L), MgCl2 (0.5 mmol/L), HEPES (10 mmol/L), MgATP (5 mmol/L), at pH 7.25.
In current-clamped myocytes, electrically-stimulated action potentials (APs) were recorded at 1 Hz and the probability of observing one or more delayed afterdepolarization-(DAD) triggered action potentials was determined during the last minute of stimulation.

Guinea pig hearts [2] = experiment: Oxygen consumption in isolated perfused hearts
Excerpt: (§1) Guinea pig hearts were quickly excised under anesthesia and mounted on a modified Langendorff apparatus attached to a Powerlab system (AD Instruments, Colorado Springs, Colo.). Hearts were perfused with gassed (95/5% O2/CO2) control buffer containing: 118-mM NaCl, 24-mM NaHCO3, 1.2-mM KH2PO4, 4.75-mM KCl, 1.2-mM MgSO4, 2.0-mM CaCl2, and 10-mM glucose. A buffer-filled latex balloon (Harvard apparatus) was inserted through the mitral valve into the left ventricle. Hearts were suspended in a buffer-filled heating chamber maintained at 37° C. and two electrodes were placed into the bath for volume-conducted electrocardiogram recordings. Heart rate, left ventricular developed pressure (LVDP), maximal rates of contraction and relaxation (±dP/dt), oxygen consumption, and electrocardiograms (ECG) were recorded on a computer. After a ten-minute equilibration period, hearts were subjected to the following protocol: ten-minute baseline recording while the heart was perfused with control buffer, ten-minute recording while 0.25-μM ouabain with or without 1 μM CGP-37157, and sixty-minute recording while hearts were stimulated with 25-nM isoproterenol. The measurements of hemodynamic parameters were determined by taking the average during the last two minutes before ouabain treatment (baseline) and for two minutes during the maximal effect on LVDP of either ouabain or isoproterenol.
Cardiac O2 concentration was measured with an O2 probe attached to a PowerLab system (AD Instruments). The probe was calibrated with 95% O2-saturated buffer as 100% and 100% N2-saturated buffer as 0%. The molar concentration of O2 consumption was calculated from percentage concentration with the following equation: VO2(μmol/min/g dwt)=CF×(0.02373/22.414)×((760−p)/760)×(ΔO2%/100)/dwt
where CF is coronary flow (mL/min); 0.02373 is the absorption coefficient of O2 in H2O at 37° C.; 22.414 is the volume (L) of 1 mol gas at STP; 760 is 1 atm in mm Hg; p equals 47.067, which is the vapor pressure of H2O at 37° C.; ΔO2% is the difference in O2 percentage concentration between inflow buffer collected from cannula before heart was mounted and outflow buffer collected from pulmonary artery; dwt is dry heart weight.

Guinea pig hearts [3] = experiment: Arrhythmia score and ventricular fibrillation in isolated perfused hearts; conditions: without or with CGP-37157; for Incidence of VF: hearts with VF / hearts, ouabain treatment and isoproterenol stimulation; for arrhythmia score: ten-minute ouabain treatment (0.25 μM), modified Score A, 0-4
Excerpt: as §1
Arrhythmias were characterized in accordance with the Lambeth Conventions, see Walker, M. J., et al., Cardiovasc. Res., 22(7):447-455 (July 1988), and scores were tabulated for the ten-minute period of ouabain treatment using modified Score A as described by Curtis, M. J. and Walker, M. J., “Quantification of arrhythmias using scoring systems: an examination of seven scores in an in vivo model of regional myocardial ischaemia,” Cardiovasc. Res., 22(9):656-665 (September 1988). Briefly, each heart was given a score based on the following criteria: 0: <50 ventricular premature beats; 1: 50-499 ventricular premature beats; 2: >500 ventricular premature beats and/or one episode of spontaneously reverting ventricular tachycardia or ventricular fibrillation; 3: more than one episode of spontaneously reverting ventricular tachycardia or fibrillation (<2 min); 4: >2 min of ventricular tachycardia or fibrillation.

[4] = molecular target: T1, mitochondrial Na+/Ca2+ exchanger (mNCE) (Cavia porcellus, UniProt H0V3X3); conditions: cited from earlier work
T1 construct: in normal cardiac myocytes, with [Na^+]i elevated artificially using the patch clamp technique, and in myocytes isolated from failing hearts; host or cells: isolated cardiac myocytes (endogenous protein)
T1 sequence (H0V3X3 27-580): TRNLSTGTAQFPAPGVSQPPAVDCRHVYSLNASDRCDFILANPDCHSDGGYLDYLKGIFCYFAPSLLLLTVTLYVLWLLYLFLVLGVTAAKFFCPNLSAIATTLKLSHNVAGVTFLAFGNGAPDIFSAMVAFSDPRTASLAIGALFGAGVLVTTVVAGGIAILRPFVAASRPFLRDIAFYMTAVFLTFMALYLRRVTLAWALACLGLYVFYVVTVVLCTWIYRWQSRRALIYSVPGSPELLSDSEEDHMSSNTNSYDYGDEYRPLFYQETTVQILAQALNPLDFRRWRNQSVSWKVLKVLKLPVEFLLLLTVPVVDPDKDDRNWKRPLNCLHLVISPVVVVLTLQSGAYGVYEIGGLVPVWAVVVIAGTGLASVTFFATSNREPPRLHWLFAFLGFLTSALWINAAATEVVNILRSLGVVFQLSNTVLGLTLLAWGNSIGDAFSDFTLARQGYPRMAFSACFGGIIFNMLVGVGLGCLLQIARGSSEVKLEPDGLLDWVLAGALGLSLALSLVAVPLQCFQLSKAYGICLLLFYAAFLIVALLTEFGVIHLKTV

[5] = after ten minutes treatment of ouabain, without or with CGP-37157

SMILES | incidence of DAD-triggered APs [1] | increase of whole-heart oxygen consumption (VO2) compared to baseline (Guinea pig hearts [2]; [5]) [%] | Incidence of VF (Guinea pig hearts [3]) | arrhythmia score (Guinea pig hearts [3]) | amplitude of DADs ([1]; ouabain plus CGP-37157 versus ouabain alone) | increase of whole-heart oxygen consumption (VO2) compared to baseline (Guinea pig hearts [2]; ouabain followed by isoproterenol, without (isoproterenol) or with CGP-37157) [%] | mitochondrial NADH production ([4]; cells with elevated [Na+]i) | mitochondrial Ca2+ retention capacity ([4]; inhibition of [Ca2+]m efflux) | Incidence of VF (Guinea pig hearts [3]; listed as CGP)
C[C@@H]1O[C@@H](O[C@H]2C[C@@H](O)[C@]3(CO)[C@H]4[C@H](O)C[C@]5(C)[C@@H](C6=CC(=O)OC6)CC[C@]5(O)[C@@H]4CC[C@]3(O)C2)[C@H](O)[C@H](O)[C@H]1O [ouabain, 1β,3β,5β,11α,14,19-Hexahydroxycard-20(22)-enolide 3-(6-deoxy-α-L-mannopyranoside, reference compound] | significant increase in the incidence of DAD-triggered APs | 18 | 7 out of 8 and 7/8 | 2.7±0.5 | – | – | – | – | –
O=C1CSC(c2ccccc2Cl)c2cc(Cl)ccc2N1 (stereo not shown) [CGP-37157, 7-chloro-5-(2-chlorophenyl)-1,5-dihydro-4,1-benzothiazepin-2(3H)-one] | not significantly different from controls | 32 | 2 out of 7 | 1.1±0.4 | smaller amplitude than in ouabain alone | 53 | restores mitochondrial NADH production | increases mitochondrial Ca^2+ retention capacity | 2/7*
